≈ marks a conversion by molar mass, not a printed value.
Columns and labels:
[1] = molecular target: T1, carboxylesterase 1 (isoform c, human, recombinant) (Homo sapiens, UniProt P23141); assay: Enzymatic ester cleavage using isolated carboxylesterase; assay type: in vitro ADME
T1 construct: purchased Sigma-Aldrich, Munich, Germany
T1 sequence (P23141 18-566 isoform P23141-3 limits assumed): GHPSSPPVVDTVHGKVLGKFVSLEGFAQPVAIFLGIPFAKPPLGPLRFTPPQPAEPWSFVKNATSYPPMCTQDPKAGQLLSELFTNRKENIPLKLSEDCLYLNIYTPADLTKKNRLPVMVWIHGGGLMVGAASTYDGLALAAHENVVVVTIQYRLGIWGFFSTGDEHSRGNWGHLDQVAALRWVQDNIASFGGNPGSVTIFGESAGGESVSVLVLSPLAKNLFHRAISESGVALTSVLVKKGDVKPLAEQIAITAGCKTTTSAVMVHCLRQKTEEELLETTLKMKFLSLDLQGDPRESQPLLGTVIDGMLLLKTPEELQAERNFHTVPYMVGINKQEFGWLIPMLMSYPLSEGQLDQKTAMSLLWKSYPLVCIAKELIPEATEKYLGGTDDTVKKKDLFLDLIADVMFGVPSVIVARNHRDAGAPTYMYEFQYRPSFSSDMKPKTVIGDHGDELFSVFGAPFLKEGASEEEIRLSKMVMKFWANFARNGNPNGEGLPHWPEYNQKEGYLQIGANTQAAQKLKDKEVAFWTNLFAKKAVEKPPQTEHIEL
Method: Enzymatic Ester Cleavage Using Isolated Carboxylesterase
Afterwards 5 μl carboxylestaerase 1 (isoform c, human, recombinant (Sigma-Aldrich, Munich, Germany)) with activity 1000 units/mg protein (concentration: 5 mg/ml) was added. The mixture was incubated for 60 and 180 min at 37° C.

[2] = Hydrolytic stability at selected pH values (TLC); assay type: physicochemical
Method: Each 20 mg of lyophilized L-DOPA glycerol ester hydrochloride as well as L-DOPA ethyl ester hydrochloride were dissolved in 250 μl of buffer solution which was de-gassed for 5 min under argon.
The ester solutions were stored at 32° C.

Solubility in water = assay type: physicochemical; conditions: for Aqueous solubility: water; for solubility in water: hydrochloride salt
Method: 40 mg of lyophilized L-DOPA glycerol ester hydrochloride was dissolved in 20 μl of water resulting in a viscous liquid. The aqueous solubility of L-DOPA glycerol ester hydrochloride is ≥2 g/ml.

[3] = cited from earlier work

SMILES: Cl.N[C@@H](Cc1ccc(O)c(O)c1)C(=O)OCC(O)CO (stereo partly drawn) [Gly-Dopa•HCl, L-DOPA glycerol ester hydrochloride]
- Time to complete hydrolysis (min) (with carboxylesterase) [1]: >60 min
- ester remaining ([1]; carboxylesterase 1, 37° C., after 180 min): only traces
- hydrolytic stability ([2]; all pH values (1, 4.5, 7.4, 8.5), 32° C., over 14 days): stable
- Stability (days at pH 7.4, Soerensen buffer) [2]: 14 days
- Aqueous solubility (Solubility in water; hydrochloride): 2000 mg/mL
- Aqueous solubility (Solubility in water; listed as L-DOPA glycerol ester hydrochloride, hydrochloride): ≥ 2000 mg/mL

SMILES: N[C@@H](Cc1ccc(O)c(O)c1)C(=O)O [L-DOPA, L-3,4-Dihydroxyphenylalanin]
- water solubility ([3]; reported, Fernandez & Odin 2011): 20 mg/mL (≈ 101 mM)

SMILES: CCOC(=O)[C@@H](N)Cc1ccc(O)c(O)c1.Cl [Ethyl-Dopa•HCl, L-DOPA ethyl ester hydrochloride]
- Time to complete hydrolysis (min) (with carboxylesterase) [1]: 60 min
- Stability (days at pH 7.4, Soerensen buffer) [2]: 2 days
- solubility in water (Solubility in water): up to 400 mg/ml
- Aqueous solubility (Solubility in water): 400 mg/mL

SMILES: CCOC(=O)[C@@H](N)Cc1ccc(O)c(O)c1 [L-DOPA ethyl ester]
- solubility ([3]; at pH 8.2, free base, US 6,696,600 B2): 52 mg/mL (≈ 231 mM)
- ester cleavage ([1]; carboxylesterase 1, 37° C., after 60 min): complete
- time within which the ester is cleaved ([2]; pH 7.4, 32° C.): ≤ 2 days
- time within which the ester is cleaved ([2]; pH 8.5, 32° C.): ≤ 2 days
- hydrolytic stability ([2]; pH=1, 32° C., over measured time period): stable
- time within which the ester is cleaved ([2]; pH=4.5, 32° C.): ≤ 14 days
- solubility in water (Solubility in water): 400 mg/mL
